Test results taken from ChEMBL document CHEMBL4507289, “Data for DCP probe GSM1” (2021).
Calls of active or inactive are those of the source. The calls are words filed in the database; no cut-off is given here.

Assays:
[1] = molecular target: Amyloid-beta precursor protein (Homo sapiens, UniProt P05067); test: Aβ40 inhibition assay
[2] = molecular target: Notch receptor (Homo sapiens, UniProt P46531+Q9UM47+Q04721+Q99466); test: Notch assay; assay type: protein assay
[3] = tested on: Tyrosine-protein kinase ABL1 (Homo sapiens), P00519 [Q252H]; conditions: Compound concentration 1000.0 nM
[4] = molecular target: Activin receptor type-1-like (Homo sapiens) (UniProt P37023); conditions: Compound concentration 1000.0 nM
[5] = molecular target: Aurora kinase C (Homo sapiens) (UniProt Q9UQB9); conditions: Compound concentration 1000.0 nM
[6] = molecular target: Calcium/calmodulin-dependent protein kinase type II subunit beta (Homo sapiens) (UniProt Q13554); conditions: Compound concentration 1000.0 nM
[7] = molecular target: Cyclin-dependent kinase 11A (Homo sapiens) (UniProt Q9UQ88); conditions: Compound concentration 1000.0 nM
[8] = molecular target: Cyclin-dependent kinase 9 (Homo sapiens) (UniProt P50750); conditions: Compound concentration 1000.0 nM
[9] = molecular target: Casein kinase I isoform gamma-2 (Homo sapiens) (UniProt P78368); conditions: Compound concentration 1000.0 nM
[10] = tested on: Epidermal growth factor receptor (Homo sapiens), P00533 [UNDEFINED MUTATION]; conditions: Compound concentration 1000.0 nM
[11] = tested on: Epidermal growth factor receptor (Homo sapiens), P00533 [UNDEFINED MUTATION]; conditions: Compound concentration 1000.0 nM; remark: listed apart in the source
[12] = tested on: Epidermal growth factor receptor (Homo sapiens), P00533 [T790M]; conditions: Compound concentration 1000.0 nM
[13] = molecular target: Vascular endothelial growth factor receptor 3 (Homo sapiens) (UniProt P35916); conditions: Compound concentration 1000.0 nM
[14] = molecular target: Cyclin-G-associated kinase (Homo sapiens) (UniProt O14976); conditions: Compound concentration 1000.0 nM
[15] = molecular target: Beta-adrenergic receptor kinase 1 (Homo sapiens) (UniProt P25098); conditions: Compound concentration 1000.0 nM
[16] = molecular target: G protein-coupled receptor kinase 3 (Homo sapiens) (UniProt P35626); conditions: Compound concentration 1000.0 nM
[17] = molecular target: Rhodopsin kinase GRK7 (Homo sapiens) (UniProt Q8WTQ7); conditions: Compound concentration 1000.0 nM
[18] = molecular target: Leukocyte tyrosine kinase receptor (Homo sapiens) (UniProt P29376); conditions: Compound concentration 1000.0 nM
[19] = molecular target: Mitogen-activated protein kinase kinase kinase 1 (Homo sapiens) (UniProt Q13233); conditions: Compound concentration 1000.0 nM
[20] = molecular target: Microtubule-associated serine/threonine-protein kinase 1 (Homo sapiens) (UniProt Q9Y2H9); conditions: Compound concentration 1000.0 nM
[21] = molecular target: Misshapen-like kinase 1 (Homo sapiens) (UniProt Q8N4C8); conditions: Compound concentration 1000.0 nM
[22] = molecular target: Macrophage-stimulating protein receptor (Homo sapiens) (UniProt Q04912); conditions: Compound concentration 1000.0 nM
[23] = molecular target: Serine/threonine-protein kinase mTOR (Homo sapiens) (UniProt P42345); conditions: Compound concentration 1000.0 nM
[24] = molecular target: Myosin light chain kinase family member 4 (Homo sapiens) (UniProt Q86YV6); conditions: Compound concentration 1000.0 nM
[25] = molecular target: Myosin-IIIb (Homo sapiens) (UniProt Q8WXR4); conditions: Compound concentration 1000.0 nM
[26] = molecular target: Serine/threonine-protein kinase PAK 5 (Homo sapiens) (UniProt Q9P286); conditions: Compound concentration 1000.0 nM
[27] = molecular target: Platelet-derived growth factor receptor alpha (Homo sapiens) (UniProt P16234); conditions: Compound concentration 1000.0 nM
[28] = molecular target: Phosphatidylinositol 3-kinase C2 domain-containing subunit gamma (Homo sapiens) (UniProt O75747); conditions: Compound concentration 1000.0 nM
[29] = tested on: Phosphatidylinositol 4,5-bisphosphate 3-kinase catalytic subunit alpha isoform (Homo sapiens), P42336 [E542K]; conditions: Compound concentration 1000.0 nM
[30] = molecular target: Serine/threonine-protein kinase PknB (Mycobacterium tuberculosis) (UniProt P9WI81); conditions: Compound concentration 1000.0 nM
[31] = molecular target: Serine/threonine-protein kinase PLK2 (Homo sapiens) (UniProt Q9NYY3); conditions: Compound concentration 1000.0 nM
[32] = molecular target: Serine/threonine-protein kinase PLK4 (Homo sapiens) (UniProt O00444); conditions: Compound concentration 1000.0 nM
[33] = molecular target: Interferon-induced, double-stranded RNA-activated protein kinase (Homo sapiens) (UniProt P19525); conditions: Compound concentration 1000.0 nM
[34] = tested on: Proto-oncogene tyrosine-protein kinase receptor Ret (Homo sapiens), P07949 [M918T]; conditions: Compound concentration 1000.0 nM
[35] = molecular target: Dual serine/threonine and tyrosine protein kinase (Homo sapiens) (UniProt Q6XUX3); conditions: Compound concentration 1000.0 nM
[36] = molecular target: Serine/threonine-protein kinase Sgk2 (Homo sapiens) (UniProt Q9HBY8); conditions: Compound concentration 1000.0 nM
[37] = molecular target: Non-receptor tyrosine-protein kinase TNK1 (Homo sapiens) (UniProt Q13470); conditions: Compound concentration 1000.0 nM
[38] = molecular target: Testis-specific serine/threonine-protein kinase 1 (Homo sapiens) (UniProt Q9BXA7); conditions: Compound concentration 1000.0 nM
[39] = molecular target: Serine/threonine-protein kinase ULK3 (Homo sapiens) (UniProt Q6PHR2); conditions: Compound concentration 1000.0 nM
[40] = molecular target: Phosphatidylinositol 3-kinase catalytic subunit type 3 (Homo sapiens) (UniProt Q8NEB9); conditions: Compound concentration 1000.0 nM
[41] = molecular target: Wee1-like protein kinase 2 (Homo sapiens) (UniProt P0C1S8); conditions: Compound concentration 1000.0 nM
[42] = molecular target: 5-hydroxytryptamine receptor 1B (Homo sapiens) (UniProt P28222); conditions: Compound concentration 10.0 uM
[43] = molecular target: D(3) dopamine receptor (Homo sapiens) (UniProt P35462); conditions: Compound concentration 10.0 uM
[44] = molecular target: Sodium-dependent serotonin transporter (Homo sapiens, UniProt P31645); conditions: Compound concentration 10.0 uM
[45] = molecular target: Mu-type opioid receptor (Homo sapiens) (UniProt P35372); conditions: Compound concentration 10.0 uM
[46] = molecular target: Histamine H2 receptor (Homo sapiens, UniProt P25021); conditions: Compound concentration 10.0 uM

Sequence of Microtubule-associated serine/threonine-protein kinase 1 (Homo sapiens) (Q9Y2H9 whole entry, looked up): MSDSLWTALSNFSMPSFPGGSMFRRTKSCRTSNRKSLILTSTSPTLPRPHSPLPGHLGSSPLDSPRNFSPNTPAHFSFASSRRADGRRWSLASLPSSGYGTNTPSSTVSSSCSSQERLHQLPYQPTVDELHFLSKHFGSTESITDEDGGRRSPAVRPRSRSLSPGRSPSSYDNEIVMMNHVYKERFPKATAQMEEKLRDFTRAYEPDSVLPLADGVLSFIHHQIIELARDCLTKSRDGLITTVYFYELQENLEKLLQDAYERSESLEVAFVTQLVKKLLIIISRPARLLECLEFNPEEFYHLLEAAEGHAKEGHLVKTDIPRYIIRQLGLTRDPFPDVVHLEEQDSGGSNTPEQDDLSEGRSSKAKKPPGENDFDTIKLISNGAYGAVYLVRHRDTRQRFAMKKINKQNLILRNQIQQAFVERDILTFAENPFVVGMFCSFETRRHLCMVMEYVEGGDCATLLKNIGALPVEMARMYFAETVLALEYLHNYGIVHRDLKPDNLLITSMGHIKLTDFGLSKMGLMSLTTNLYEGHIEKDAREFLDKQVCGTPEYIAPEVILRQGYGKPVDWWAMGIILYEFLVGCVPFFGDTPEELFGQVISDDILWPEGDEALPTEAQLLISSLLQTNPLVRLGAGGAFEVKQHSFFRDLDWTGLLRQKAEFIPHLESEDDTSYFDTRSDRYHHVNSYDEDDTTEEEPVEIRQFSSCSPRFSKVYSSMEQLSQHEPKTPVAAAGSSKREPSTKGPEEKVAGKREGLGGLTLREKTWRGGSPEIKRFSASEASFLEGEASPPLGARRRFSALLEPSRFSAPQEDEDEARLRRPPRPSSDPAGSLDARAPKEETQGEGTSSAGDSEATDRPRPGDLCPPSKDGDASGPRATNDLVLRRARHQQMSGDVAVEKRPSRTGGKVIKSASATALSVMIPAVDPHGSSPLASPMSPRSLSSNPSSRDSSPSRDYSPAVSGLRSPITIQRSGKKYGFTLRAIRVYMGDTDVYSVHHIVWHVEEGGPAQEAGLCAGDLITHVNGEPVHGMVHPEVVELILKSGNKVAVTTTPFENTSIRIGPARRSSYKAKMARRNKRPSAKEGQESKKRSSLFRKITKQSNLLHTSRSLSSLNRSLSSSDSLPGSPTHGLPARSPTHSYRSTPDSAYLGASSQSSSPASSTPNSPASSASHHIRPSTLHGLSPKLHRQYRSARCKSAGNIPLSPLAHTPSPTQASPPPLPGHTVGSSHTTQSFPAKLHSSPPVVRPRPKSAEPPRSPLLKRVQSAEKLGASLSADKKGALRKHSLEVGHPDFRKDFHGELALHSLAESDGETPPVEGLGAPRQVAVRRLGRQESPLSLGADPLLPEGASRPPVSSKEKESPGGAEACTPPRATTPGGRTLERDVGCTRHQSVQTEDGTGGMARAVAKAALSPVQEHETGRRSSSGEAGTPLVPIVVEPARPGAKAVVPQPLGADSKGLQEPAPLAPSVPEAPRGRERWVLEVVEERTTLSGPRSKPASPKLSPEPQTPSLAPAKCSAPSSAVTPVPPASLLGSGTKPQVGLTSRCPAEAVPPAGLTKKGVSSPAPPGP
Sequence of G protein-coupled receptor kinase 3 (Homo sapiens) (P35626 whole entry): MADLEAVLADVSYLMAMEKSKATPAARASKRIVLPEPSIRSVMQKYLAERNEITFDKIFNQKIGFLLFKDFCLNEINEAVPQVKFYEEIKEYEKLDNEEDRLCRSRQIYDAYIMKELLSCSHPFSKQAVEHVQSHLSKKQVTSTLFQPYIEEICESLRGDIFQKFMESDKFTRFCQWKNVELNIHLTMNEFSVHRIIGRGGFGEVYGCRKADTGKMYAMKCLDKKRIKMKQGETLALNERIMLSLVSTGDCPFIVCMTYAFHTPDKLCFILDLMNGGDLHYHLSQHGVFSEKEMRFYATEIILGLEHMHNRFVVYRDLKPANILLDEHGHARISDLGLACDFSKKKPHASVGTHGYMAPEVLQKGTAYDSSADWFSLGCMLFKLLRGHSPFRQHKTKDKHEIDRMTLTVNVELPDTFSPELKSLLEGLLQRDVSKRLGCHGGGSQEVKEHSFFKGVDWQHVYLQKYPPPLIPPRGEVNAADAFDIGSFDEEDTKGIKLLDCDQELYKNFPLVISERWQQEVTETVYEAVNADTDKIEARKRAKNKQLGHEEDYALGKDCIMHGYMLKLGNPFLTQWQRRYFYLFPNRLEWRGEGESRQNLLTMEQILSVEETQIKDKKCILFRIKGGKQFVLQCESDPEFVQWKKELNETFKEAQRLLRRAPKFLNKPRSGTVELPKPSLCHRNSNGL
Sequence of Non-receptor tyrosine-protein kinase TNK1 (Homo sapiens) (Q13470 whole entry): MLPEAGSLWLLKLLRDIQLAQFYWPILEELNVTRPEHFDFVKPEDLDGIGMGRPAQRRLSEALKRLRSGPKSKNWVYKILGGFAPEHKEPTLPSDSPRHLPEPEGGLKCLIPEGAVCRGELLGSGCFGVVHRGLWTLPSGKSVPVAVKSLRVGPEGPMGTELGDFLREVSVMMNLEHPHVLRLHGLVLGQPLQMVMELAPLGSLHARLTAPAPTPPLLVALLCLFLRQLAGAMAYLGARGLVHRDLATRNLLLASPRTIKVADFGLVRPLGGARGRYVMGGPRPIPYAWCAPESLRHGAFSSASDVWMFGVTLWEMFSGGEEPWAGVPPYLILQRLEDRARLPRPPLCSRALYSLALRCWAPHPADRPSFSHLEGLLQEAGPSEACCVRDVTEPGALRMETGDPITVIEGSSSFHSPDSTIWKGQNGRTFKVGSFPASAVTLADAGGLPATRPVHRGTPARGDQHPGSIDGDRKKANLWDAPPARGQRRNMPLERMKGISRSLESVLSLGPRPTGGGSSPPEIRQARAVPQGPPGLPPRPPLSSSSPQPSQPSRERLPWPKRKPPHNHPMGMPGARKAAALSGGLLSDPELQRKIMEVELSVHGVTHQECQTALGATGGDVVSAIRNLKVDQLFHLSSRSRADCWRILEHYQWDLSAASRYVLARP
Sequence of Platelet-derived growth factor receptor alpha (Homo sapiens) (P16234 whole entry, the tested form may be a part): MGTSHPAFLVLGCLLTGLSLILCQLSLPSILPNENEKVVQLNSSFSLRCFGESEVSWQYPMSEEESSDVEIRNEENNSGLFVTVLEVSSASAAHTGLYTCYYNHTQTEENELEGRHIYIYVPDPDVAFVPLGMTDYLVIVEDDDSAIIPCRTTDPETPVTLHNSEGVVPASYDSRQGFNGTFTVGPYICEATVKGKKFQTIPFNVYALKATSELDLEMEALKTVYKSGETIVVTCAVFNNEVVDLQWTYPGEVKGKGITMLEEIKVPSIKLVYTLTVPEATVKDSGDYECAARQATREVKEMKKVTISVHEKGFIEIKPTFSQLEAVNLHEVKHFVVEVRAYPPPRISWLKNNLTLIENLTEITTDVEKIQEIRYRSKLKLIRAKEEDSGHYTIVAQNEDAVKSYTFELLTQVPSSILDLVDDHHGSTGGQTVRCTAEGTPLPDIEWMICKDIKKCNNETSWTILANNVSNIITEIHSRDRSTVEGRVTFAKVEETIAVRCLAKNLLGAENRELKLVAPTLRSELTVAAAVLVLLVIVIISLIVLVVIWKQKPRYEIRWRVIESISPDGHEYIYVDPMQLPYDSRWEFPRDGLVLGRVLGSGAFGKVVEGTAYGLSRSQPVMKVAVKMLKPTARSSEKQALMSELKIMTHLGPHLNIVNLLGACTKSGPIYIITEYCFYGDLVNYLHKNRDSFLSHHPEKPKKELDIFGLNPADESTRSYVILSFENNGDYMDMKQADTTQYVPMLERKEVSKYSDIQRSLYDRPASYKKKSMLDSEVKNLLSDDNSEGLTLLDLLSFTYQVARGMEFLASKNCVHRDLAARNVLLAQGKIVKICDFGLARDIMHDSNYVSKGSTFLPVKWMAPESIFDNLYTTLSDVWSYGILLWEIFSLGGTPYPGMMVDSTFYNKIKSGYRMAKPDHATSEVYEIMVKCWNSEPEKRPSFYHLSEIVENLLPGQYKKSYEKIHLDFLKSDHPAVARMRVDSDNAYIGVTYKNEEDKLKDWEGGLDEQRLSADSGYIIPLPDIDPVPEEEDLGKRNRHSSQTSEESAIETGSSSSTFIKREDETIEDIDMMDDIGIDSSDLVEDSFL
Sequence of Amyloid-beta precursor protein (P05067 whole entry): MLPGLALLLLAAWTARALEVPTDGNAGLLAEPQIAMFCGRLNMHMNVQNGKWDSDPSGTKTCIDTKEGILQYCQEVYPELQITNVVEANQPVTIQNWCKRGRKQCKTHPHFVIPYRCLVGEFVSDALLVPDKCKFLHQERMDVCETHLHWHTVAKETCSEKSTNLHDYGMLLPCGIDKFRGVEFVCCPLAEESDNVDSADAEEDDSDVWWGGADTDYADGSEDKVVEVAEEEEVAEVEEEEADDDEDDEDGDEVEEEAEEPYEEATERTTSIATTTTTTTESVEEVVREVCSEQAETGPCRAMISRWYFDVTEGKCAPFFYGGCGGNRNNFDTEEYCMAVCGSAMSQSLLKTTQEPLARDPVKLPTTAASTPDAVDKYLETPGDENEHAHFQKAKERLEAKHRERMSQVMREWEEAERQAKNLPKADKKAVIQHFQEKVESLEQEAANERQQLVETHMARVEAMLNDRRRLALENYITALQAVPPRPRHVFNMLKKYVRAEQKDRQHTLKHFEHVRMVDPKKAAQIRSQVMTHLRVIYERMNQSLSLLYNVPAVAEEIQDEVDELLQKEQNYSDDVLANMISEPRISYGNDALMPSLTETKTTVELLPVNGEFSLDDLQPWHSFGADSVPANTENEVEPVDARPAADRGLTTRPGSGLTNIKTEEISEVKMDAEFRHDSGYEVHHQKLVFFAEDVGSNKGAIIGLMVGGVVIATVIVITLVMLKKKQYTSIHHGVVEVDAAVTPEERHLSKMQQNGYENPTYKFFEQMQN
Sequence of Aurora kinase C (Homo sapiens) (Q9UQB9 whole entry): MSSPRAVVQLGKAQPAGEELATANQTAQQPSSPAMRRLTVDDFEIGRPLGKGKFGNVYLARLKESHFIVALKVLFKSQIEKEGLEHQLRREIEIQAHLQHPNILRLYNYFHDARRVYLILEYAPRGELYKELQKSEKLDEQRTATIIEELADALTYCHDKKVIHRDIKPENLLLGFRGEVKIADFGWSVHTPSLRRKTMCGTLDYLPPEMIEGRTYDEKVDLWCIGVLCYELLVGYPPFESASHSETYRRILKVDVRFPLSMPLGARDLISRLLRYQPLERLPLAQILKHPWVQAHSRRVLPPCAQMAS

COc1cc(-c2cn([C@H]3CCc4c(F)cccc4N(CC(F)(F)F)C3=O)nn2)ccc1-n1cnc(C)c1
IC50 [1]: 0.131 µM (active) | IC50 [2]: 397.8 µM | residual activity [3]: 95% | residual activity [4]: 100% | residual activity [5]: 100% | residual activity [6]: 100% | residual activity [7]: 100% | residual activity [8]: 97% | residual activity [9]: 100% | residual activity [10]: 100% | residual activity [11]: 98% | residual activity [12]: 83% | residual activity [13]: 100% | residual activity [14]: 88% | residual activity [15]: 100% | residual activity [16]: 100% | residual activity [17]: 100% | residual activity [18]: 100% | residual activity [19]: 100% | residual activity [20]: 100% | residual activity [21]: 84% | residual activity [22]: 100% | residual activity [23]: 100% | residual activity [24]: 100% | residual activity [25]: 100% | residual activity [26]: 93% | residual activity [27]: 100% | residual activity [28]: 72% | residual activity [29]: 88% | residual activity [30]: 82% | residual activity [31]: 100% | residual activity [32]: 100% | residual activity [33]: 100% | residual activity [34]: 100% | residual activity [35]: 100% | residual activity [36]: 95% | residual activity [37]: 100% | residual activity [38]: 100% | residual activity [39]: 63% | residual activity [40]: 100% | residual activity [41]: 100% | inhibition [42]: 35% | inhibition [43]: 3.33% | inhibition [44]: 88.6% | inhibition [45]: 30.2% | inhibition [46]: 51.8%

COc1cc(-c2cn([C@H]3CCc4ccccc4N(CC(F)(F)F)C3=O)nn2)ccc1-n1ccc(C)n1
IC50 [1]: > 10 µM (not active) | IC50 [2]: > 50 µM | residual activity [3]: 90% | residual activity [4]: 100% | residual activity [5]: 100% | residual activity [6]: 97% | residual activity [7]: 97% | residual activity [8]: 100% | residual activity [9]: 100% | residual activity [10]: 100% | residual activity [11]: 100% | residual activity [12]: 59% | residual activity [13]: 100% | residual activity [14]: 92% | residual activity [15]: 87% | residual activity [16]: 100% | residual activity [17]: 87% | residual activity [18]: 100% | residual activity [19]: 72% | residual activity [20]: 100% | residual activity [21]: 100% | residual activity [22]: 96% | residual activity [23]: 100% | residual activity [24]: 100% | residual activity [25]: 100% | residual activity [26]: 96% | residual activity [27]: 88% | residual activity [28]: 65% | residual activity [29]: 82% | residual activity [30]: 78% | residual activity [31]: 100% | residual activity [32]: 73% | residual activity [33]: 87% | residual activity [34]: 100% | residual activity [35]: 100% | residual activity [36]: 100% | residual activity [37]: 100% | residual activity [38]: 83% | residual activity [39]: 61% | residual activity [40]: 100% | residual activity [41]: 100% | inhibition [42]: 30.8% | inhibition [43]: 22% | inhibition [44]: 90.6% | inhibition [45]: 5.55% | inhibition [46]: 4.13%
